Earlier results as cited in article PMC8781228 (Bioorganic & medicinal chemistry letters, 2017).

Key:
S1PR2 [1] = conditions: read-out: EC50 (allosteric S1PR2 selective agonist)
S1PR2 [2] = conditions: [33P]S1P competitive binding assay
S1PR5 = conditions: [γ-35S]GTPγS binding assay
S1PR2 [3] = conditions: [γ-35S]GTPγS binding assay
S1PR4 = conditions: [γ-35S]GTPγS binding assay
S1PR1 = conditions: [γ-35S]GTPγS binding assay
S1PR3 = conditions: [γ-35S]GTPγS binding assay

Cc1cc(C(=O)Cn2cc(C#N)ccc2=O)c(C)n1Cc1ccccc1 [CYM-5520]
EC50 (S1PR2 [1]): 480 nM
competition with S1P (S1PR2 [2]): not competitive with S1P

CCCCCCCCc1ccc(CCC(N)(CO)CO)cc1 [FTY720, fingolimod]
activity at S1PR5 (S1PR5): potent agonist
activity at S1PR2 (S1PR2 [3]): inactive
activity at S1PR4 (S1PR4): potent agonist
activity at S1PR1 (S1PR1): potent agonist
activity at S1PR3 (S1PR3): potent agonist
